The test system of series [1] is pyramidal neurons in layers III and IV of the posterior cingulate and retrosplenial (PC/RS) cortices. The series can be described thus: In vivo assay of toxic side effects of NMDA antagonists (vacuole formation in PC/RS cortex). To be noted: adult female rats, ip, sacrificed four hours after treatment.
Series [2] relates to NMDA receptors. In kind it is cell-based, chick. As for the experimental part:
Potency rating=minimum concentration required to provide total protection against neurotoxic effects of NMDA (40 μM) in chick embryo retinal tissue tests
These experiments were performed using segments of chick embryo retina. This is a widely used model for studying the production and prevention of excitotoxic phenomena, since it is a simple and inexpensive preparation, and since chick tissue provides a better model of adult mammalian neurons than embryonic or juvenile mammalian tissue. All of the glutamate receptors that mediate excitotoxic phenomena are present in chick retinas, and are sensitive to excitotoxic stimulation. By contrast, in embryonic or juvenile mammalian tissue, various glutamate receptors are not fully matured and are not responsive in the same ways that occur in adult mammalian tissue.
In these tests, NMDA is introduced into the incubation medium in a concentration ([…]) sufficient to produce a fully developed excitotoxic lesion within 30 min, displaying acute degeneration and necrosis of the majority of neurons in the inner layers of the retina. The control retinas are incubated with NMDA alone, and experimental retinas are incubated with NMDA plus a test compound that is being evaluated for NMDA antagonist properties. […] All agents that prevent NMDA from hyperactivating NMDA receptors and thereby inducing an excitotoxic neurodegenerative reaction in the chick embryo retina are considered appropriate candidate drugs for preventing NMDA receptor hyperactivation and NMDA receptor burnout in the presymptomatic stages of Alzheimer's disease.
The concentration of the test compound required to prevent NMDA from inducing neuronal degeneration in the chick retina tissue is considered a measure of its expected potency for preventing NMDA receptor hyperactivation and NMDA receptor burnout in the presymptomatic stages of Alzheimer's disease.

The subject of series [3] is vacuolated PC/RS neurons. In kind it is in vivo, rat. As to conditions: MK-801 ip. Here is the method: To try to avoid that problem, a subsequent set of tests was carried out in which NBQX was microinjected directly into the PC/RS cortex, at one of two doses, either 0.025 or 0.25 nmols.
The test system of series [4] is vacuolated PC/RS neurons. It is filed as in vivo, rat. As to conditions: NBQX 15 mg/kg ip every 30 minutes, 4 injections, with MK-801 0.5 mg/kg; 4 h; ± SEM.
From the text: The rats were sacrificed four hours after the treatment began, and brain tissue from the PC/RS region was histologically evaluated, by previously described methods (Olney et al 1991) using double-blinded techniques. The number of vacuolated PC/RS neurons were counted on each side of the brain at a rostrocaudal level immediately posterior to where the corpus callosum ceases decussating across the midline (approximately 5.6 mm caudal to Bregma; see Paxinos & Watson, The Rat Brain in Stereotaxic Coordinates, 2nd ed., 1986).
Series [5] has as its system neurons in rat brain. The series can be described thus: PCP alone (minipump infusion or single high dose), brain damage in rats. It is filed as in vivo. The text has this:
Initially, the Applicants found it difficult to perform a detailed analysis of the full pattern and type of damage that can be induced in the adult rat brain by treatment with an NMDA antagonist because of technical problems that had to be overcome. Therefore, the Applicants tried several approaches. For example, it had been claimed (Ellison 1994) that when PCP is infused continuously in adult rats for five days, by a subcutaneously implanted minipump, it causes injury to nerve cells in several brain regions.
However, they found (Corso et al 1994) that even when a near lethal dose (50-80 mg/kg sc) was administered, a fully developed widespread pattern of damage could only be induced in a very small percentage of treated animals.

Series [6] has as its system neurons in neocortical and limbic brain regions. The series can be described thus: Histopathology of rat brain after PCP/pilocarpine treatment. It is filed as in vivo. As for the experimental part: Adult female rats were injected subcutaneously with an NMDA antagonist drug, phencyclidine (PCP), at 50 milligrams of drug per kilogram of body weight (mg/kg sc), accompanied by a small dose of a muscarinic agonist, pilocarpine (10 mg/kg sc). At various times (4, 16, 24, 48, 72 and 96 hours) after treatment, the rats were anesthetized and perfused with fixative to allow their brains to be prepared for histological evaluation.
Degenerating neurons in various brain regions were also examined by electron microscopy, to obtain evidence for loss of synaptic complexes, and a computer-assisted cell plotting system was used to plot the location and count the frequency with which degenerating neurons were found in each brain region.
Massive loss of neurons throughout many neocortical and limbic brain regions is a hallmark characteristic of Alzheimer's disease. To establish that the NR/hypo mechanism results not only in cell injury but in cell death, the Applicants systematically examined the brains of rats 4 days following PCP/pilocarpine treatment. Sections prepared at 1 millimeter intervals from one side of the brain were stained, using hematoxylin and eosin; sections prepared at 1 millimeter intervals from the other side of the brain were stained using a silver impregnation stain. […]

The test system of series [7] is cerebrocortical neurons. To be noted: Olney et al 1989, Corso et al 1994; cited from earlier work.
The conditions of series [8]: human anesthesia; cited from earlier work.

Molecules are shown by their SMILES. Like-named read-outs stand apart in the source and are kept apart here.

Take `NS(=O)(=O)c1cccc2c1c([N+](=O)[O-])cc1nc(O)c(O)nc12` [NBQX]: in series [1], the “neurotoxic (vacuole) reaction in PC/RS cortex, drug by itself” value was “did not cause vacuoles”. Besides, in series [2] (NMDA 40 μM, chick embryo retinal tissue), the “POTENCY RATING = minimum concentration required to provide total protection against neurotoxic effects of NMDA” value was 100 µM. Also, the “reduction of vacuoles, protected (ipsilateral) side, lower dosage” value in series [3] (NBQX 0.025 nmols microinjected into PC/RS cortex) was “about 20%”. In series [3] (NBQX 0.25 nmols microinjected into PC/RS cortex), the “reduction of vacuoles, protected (ipsilateral) side, higher dosage” value was “about 80%”. Moreover, in series [4], the “vacuolated neurons in PC/RS cortex, MK-801 plus NBQX” value is recorded as 52±22.4 vacuolated neurons per microscopic section.
As to `c1ccc(C2(N3CCCCC3)CCCCC2)cc1` [Phencyclidine], the “rats with a full pattern of damage out of 40 rats treated” value in series [5] (PCP 50 mg/kg i.p., single dose) is reported as 1. In addition, the “neuronal damage after continuous infusion by subcutaneous minipump” value in series [5] (adult rats, five days, same dose as Ellison 1994) is “produced no neuronal damage at all”. The near lethal dose in series [5] (rats) is on record as 50-80 mg/kg sc. For the same compound, the “NR/hypo-induced brain damage, PCP combined with pilocarpine” value in series [6] (PCP 50 mg/kg i.p. combined with pilocarpine 10 mg/kg i.p.) is “reliably and consistently produced severe levels of NR/hypo-induced damage”. Further, the “POTENCY RATING = minimum concentration required to provide total protection against neurotoxic effects of NMDA” value in series [2] turned out to be 1 µM. The “pathological changes in cerebral cortex / corticolimbic regions of adult rats” value in series [7] was “produce pathological changes in various corticolimbic regions of the adult rat brain”.
`CC[C@@H]1C(=O)OC[C@@H]1Cc1cncn1C` [pilocarpine]: the “brain damage by pilocarpine by itself” value in series [6] (even at very high dosages) is “does not and cannot cause the type of damage observed in these tests”.
Consider `CNC1(c2ccccc2Cl)CCCCC1=O` (stereo not drawn) [Ketamine], for which the duration of action result in series [8] was “about 15 minutes”. Besides, the “POTENCY RATING = minimum concentration required to provide total protection against neurotoxic effects of NMDA” value in series [2] is 10 µM. For the same compound, the “pathological changes in cerebral cortex / corticolimbic regions of adult rats” value in series [7] was “cause pathological changes in the cerebral cortex of adult rats”.

The record behind these values is patent US6391871B1 (priority 1996, dated 2002).
